# Tests used:
# [1] = test system: HL-60; assay: Cytotoxicity against human HL60 cells incubated for 72 hrs by MTT assay; type: cell-based; conditions: HL-60, 72 h
# [2] = test system: HeLa; assay: Cytotoxicity against human HeLa cells at 10 uM incubated for 72 hrs by MTT assay; type: cell-based
# [3] = test system: HL-60; assay: Cytotoxicity against human HL60 cells at 10 uM incubated for 72 hrs by MTT assay; type: cell-based; conditions: hl-60, 72 h
# [4] = test system: Plasmodium falciparum; assay: Antiplasmodial activity against asexual erythrocytic stage of Plasmodium falciparum 3D7 assessed as reduction in parasite growth after 72 hrs by LDH assay; type: functional, organism-based; conditions: 3D7, 72 h
SMILES,IC50 [1] [nM],Activity [2],Activity [3],IC50 [4] [nM]
COc1cccc2c1C(=O)c1c(O)c3c(c(O)c1C2=O)C[C@@](O)(C(=O)CO)C[C@@H]3O[C@H]1C[C@H](N)[C@H](O)[C@H](C)O1 [DOXORUBICIN],46,–,–,–
CCC[C@H](C[C@@H](CC(=O)N(C)[C@@H](C(=O)N[C@H](CO)C(=O)N[C@H](CC(C)C)C(=O)N(C)[C@@H](CC(C)C)C(=O)N[C@H](C(=O)N(C)[C@H](C(=O)N(C)[C@@H](CCC(N)=O)C(=O)N(C)[C@@H](Cc1ccc(OC)cc1)C(=O)OC)[C@@H](C)CC)[C@@H](C)O)[C@@H](C)CC)OC)OC,–,Non-Toxic,Non-Toxic,140
